We go through 13 compounds from patent publication US8648090B2, “Indole alkaloid derivatives having opioid receptor agonistic effect, and therapeutic compositions and methods relating to same” (National University Corporation Chiba University, priority 2007, dated 2014).

Read-outs that look alike come from different tables or passages of the source.

Series [1] has as its system guinea pig ileum. Description: Twitch contraction induced by electrical stimulation in guinea pig isolated ileum (Magnus assay). The conditions noted are these: for Emax / EC50: Cavia porcellus; for EC50: read-out: pD2 value (−log M) (converted); for Relative Potency (%): against morphine (100); for Inhibitory activity (%): maximum inhibition as percentage of that by morphine, intrinsic activity on opioid receptors; for pD2 value (−log M): negative logarithm of EC50, mean ± SEM of five or six animals; for Maximum inhibition (%): response at plateau, twitch contraction regarded as 100%.
Procedure: The opioid agonistic effect was evaluated in an experiment involving twitch contraction induced by electrical stimulation of guinea pig ileum.
The guinea-pig ileum was dissected and placed in Krebs-Henseleit solution (in mM: NaCl, 112.08; KCl, 5.90; CaCl2, 1.97; MgCl2, 1.18; NaH2PO4, 1.22; NaHCO3, 25.00, and glucose, 11.49). The ileum was placed under 1 g tension in a 5 ml organ bath containing the nutrient solution. The bath was maintained at 37° C. and continuously bubbled with a mixture of 95% O2 and 5% CO2. Tissues were stimulated by a platinum needle-ring (the ring was placed 20 mm above the base of a 5 mm long needle) electrode. After equilibration, the ileum was transmurally stimulated with monophasic pulses (0.2 Hz and 0.1 ms duration) by a stimulator (SEN-7203, Nihon Kohden, Tokyo, Japan). Contractions were isotonically recorded by using a displacement transducer (NEC Type 45347, San-ei Instruments Ltd., Tokyo, Japan). The effects of drug treatments on the twitch contractions evoked by transmural stimulation elicited through the ring electrodes were examined. The height of the twitch response to transmural stimulation was measured before and after the drug challenge. The responses were expressed as % inhibition of the twitch response to the transmural stimulation before the drug challenge.
Male albino guinea pigs (Japan SLC) weighing 320-550 g were used. Animals were housed in a temperature-controlled room at 24° C. with lights on from 07:00-19:00 and had free access to food and water. The guinea-pig ileum was dissected and placed in Krebs-Henseleit solution (in mM: NaCl, 112.08; KCl, 5.90; CaCl2, 1.97; MgCl2, 1.18; NaH2PO4, 1.22; NaHCO3, 25.00, and glucose, 11.49). The ileum was set up under 1 g of tension in 5 mL of an organ bath containing the nutrient solution. The bath was maintained at 37° C. and continuously bubbled with a gas mixture of 95% O2 and 5% CO2. At the start of each experiment, the maximum response to acetylcholine (3 μM) was obtained for each tissue to check its suitability. Tissues were stimulated through platinum needle-ring (a ring was placed 20 mm above the base of a needle 5 mm in length) electrodes using square wave pulses of supramaximal voltage. The ileum was transmurally stimulated with monophasic pulses (0.2 Hz) at 0.3 ms duration by a stimulator (SEN-7203, Nihon Kohden, Tokyo, Japan). Contractions were isotonically recorded with a displacement transducer (NEC, San-ei Instruments Ltd., Type 45347), a DC strain amplifier (San-ei 6M92), and a DC recorder (Hitachi, Mod 056, Tokyo, Japan). All concentration-response curves were constructed in a cumulative manner. The height of the twitch response to transmural stimulation was measured before and after drug challenge. The twitch response remaining after each sample addition was determined by dividing the height after its addition by the height before addition multiplied by 100. To obtain the percentage inhibition, this value was subtracted from 100. […] To investigate the involvement of opioid receptors in the inhibitory effect of the samples, the antagonistic effect of the opioid receptor antagonist naloxone was examined. The inhibitory effects of samples on electrically stimulated contraction were regarded as opioid activities when the antagonistic effect of naloxone was observed.

The nature of series [2]: Gastrointestinal transit (charcoal meal), constipating effect after oral administration. It counts as in vivo. The following applies: mouse, in vivo; oral administration, mice; (95% confidence limits); read-out: ED50 inhibitory effect on gastrointestinal transit (GIT), constipating ED50. On the procedure: (§1) The inhibition of gastrointestinal transit (%) was calculated as: Inhibition of gastrointestinal transit (%)=[(saline or vehicle GIT−drug GIT)/(saline or vehicle GIT)]×100. Each value represents mean±S.E.M. of 7 or 8 mice.
(§2) Mice were fasted, with water available ad libitum, for 18 h before the experiments. […] Thirty minutes after administration of the charcoal meal, the animal was sacrificed by cervical dislocation, and the small intestine from the pylorus to the ileocecum was carefully removed. Both the length of the small intestine from the pylorus to the ileocecum and the farthest distance to which the charcoal meal had traveled were measured. For each animal, the gastrointestinal transit (GIT) was calculated as the percentage of distance traveled by the charcoal meal relative to the total length of the small intestine. The inhibition of gastrointestinal transit (%) was calculated as: Inhibition of gastrointestinal transit (%)=[(saline or vehicle GIT−drug GIT)/(saline or vehicle GIT)]×100.
(§3) The data are expressed as the mean±S.E.M. Statistical analyses were performed with two-tailed Student's t-test for comparison of two groups, and by a one-way analysis of variance followed by a Bonferroni multiple comparison test for comparison of more than two groups. A P value <0.05 was considered statistically significant.

For series [3], the system named is mice. Description: Tail-flick test, analgesic effect after oral administration. It counts as in vivo. The conditions noted are these: for ED50: Mus musculus; for ED50 / ED50 analgesic effect (tail-flick): mice, (95% confidence limits); for times more potent analgesic effect than morphine: mouse tail-flick test.
Excerpt: Analgesia was quantified using the percentage of maximum possible effect (% MPE) and calculated as: % MP=[(test latency−pre-drug latency)/(cut-off time−pre-drug latency)]×100. A cut-off time of 10 s was used to prevent tissue damage. Each value represents mean±S.E.M. of data obtained from 7 to 9 mice.
(§4) Mice respond to a focused heat stimulus by flicking or moving their tail from the path of the stimulus, thereby exposing a photocell located in the tail-flick analgesia meter (Ugo Basile Tail-flick Unit 7360, Ugo Basile, Comerio, Italy) immediately below the tail. The reaction time is automatically recorded. Prior to treatment with drugs, vehicle, or saline, the nociceptive threshold was measured three times, and the mean of the reaction time was used as the pre-drug latency for each mouse. A cut-off time of 10 s was used to prevent tissue damage. Analgesia was quantified using the percentage of maximum possible effect (% MPE) and calculated as: % MPE=[(test latency−pre-drug latency)/(cut-off time−pre-drug latency)]×100.
as §3
For orientation: Thermal pain tests record how soon the animal reacts.

Series [4] has as its system mice. Description: Gastrointestinal transit (charcoal meal), constipating effect after oral administration. It counts as in vivo. The conditions noted are these: oral, GIT ED50 versus tail-flick ED50. On the procedure:
as §1, §2, §3

In series [5] the test system is mice. Description: Effects of opioid receptor antagonists on analgesia induced by s.c. administration, mouse tail-flick test. The conditions noted are these: s.c. compound; for effect of naloxone on analgesic effect: non-selective opioid antagonist naloxone, data not shown; for effect of naltrindole on analgesic effect: δ-opioid receptor selective antagonist NTI 3 mg/kg; for effect of nor-binaltorphimine on analgesic effect: κ-opioid receptor selective antagonist norBNI 20 mg/kg; for effect of β-funaltrexamine on analgesic effect: μ-opioid receptor selective antagonist β-FNA 40 mg/kg. It counts as in vivo. On the procedure: The analgesic effects were determined in the mouse tail-flick test after s.c. administration of the following antagonists: β-funaltrexamine (β-FNA, 40 mg/kg), naltrindole (NTI, 3 mg/kg), and nor-binaltorphimine (norBNI, 20 mg/kg). Measurements were performed 15 min after s.c. administration of compound 11, compound 26 and compound 27. […] Each value represents mean±S.E.M. of 8 or 9 mice.
as §4

Where [6] appears, read: read-out: Inhibitory activity (%).
The mark [7] stands for this setting: read-out: Maximum inhibition (%).

The term ED50 denotes the dose at which the effect has come halfway, by size or by number of responders. In the case of `CC[C@@H]1CN2CC[C@@]3(O)C(=Nc4cccc(OC)c43)[C@@H]2C[C@@H]1/C(=C\OC)C(=O)OC` [Compound 1, 7-hydroxymitragynine, reference compound], the Emax amounted to 104% in series [1] (setting [6]) and 90.8 ± 3.4% in series [1] (setting [7]). The EC50 in series [1] was 16.6 nM. Also, the “Relative Potency (%)” value in series [1] was 426%. In addition, the values for the ED50 in series [2] and in series [3] were 7.5 mg/kg and 4.43 mg/kg, respectively. For the same compound, in series [3], the “times more potent analgesic effect than morphine” value is recorded as 14 times.
With `CC[C@@H]1CN2CCc3c([nH]c4cccc(OC)c34)[C@@H]2C[C@@H]1/C(=C\OC)C(=O)OC` [Compound 2, Mitragynine, reference compound], the Emax in series [1] (setting [6]) came out at 83%; in series [1] (setting [7]) it was 72 ± 5%. For the same compound, the EC50 in series [1] is 316 nM. Besides, the “Relative Potency (%)” value in series [1] was 22%.
One may read the melting point as the temperature of the solid-liquid transition. The compound `c1ccc2c(c1)N[C@]13CCCC[C@]21OCCO3` had a melting point of 156 to 157 °C.
As to `CC[C@@H]1CN2CC[C@@]34OCCO[C@@]3(Nc3ccc([N+](=O)[O-])c(OC)c34)[C@@H]2C[C@@H]1/C(=C\OC)C(=O)OC` [Compound 14a], in series [1], the “Relative Potency (%)” value amounted to 537%, the “Inhibitory activity (%)” value came to 75%, the “pD2 value (−log M)” value was 7.88 ± 0.18 −log M and the “Maximum inhibition (%)” value was 65.0 ± 4.3%.
Turning to `CN1CC[C@]23c4c5ccc(O)c4O[C@H]2[C@@H](O)C=C[C@H]3[C@H]1C5` [Morphine, reference compound], the Emax is 100% in series [1] (setting [6]) and 87.2 ± 1.8% in series [1] (setting [7]). Also, the “constipating ED50 times smaller than analgesic ED50” value in series [4] is on record as 5 times. Moreover, the ED50 in series [2] was found to be 11.7 mg/kg; in series [3], 63 mg/kg.
On to `CC[C@@H]1CN2CC[C@@]3(O)C(=Nc4ccc(Br)c(OC)c43)[C@@H]2C[C@@H]1/C(=C\OC)C(=O)OC` [Compound 24, 7-Hydroxy-10-bromomitragynine], for which, in series [1] (setting [6]), the Emax amounted to 71%. Also, the Emax in series [1] (setting [7]) is 61.7 ± 6.2%. Besides, in series [1], the EC50 was 35.5 nM and the “Relative Potency (%)” value came out at 199%.
For `CC[C@@H]1CN2CC[C@@]34OCCO[C@@]3(Nc3cccc(OC)c34)[C@@H]2C[C@@H]1/C(=C\OC)C(=O)OC` [Compound 3] the same measures were 40%, 35 ± 11%, 20 nM and 354%.
Consider `CC[C@@H]1CN2CC[C@@]34OCCO[C@@]3(Nc3ccc(F)c(OC)c34)[C@@H]2C[C@@H]1/C(=C\OC)C(=O)OC` [Compound 11], for which, in series [1] (setting [6]), the Emax was found to be 96%. In series [1] (setting [7]), the Emax was 83.4 ± 3.2%. In addition, in series [1], the EC50 is 3.98 nM and the “Relative Potency (%)” value is recorded as 1778%. In series [5], the “effect of naloxone on analgesic effect” value is listed as “completely blocked”, the “effect of naltrindole on analgesic effect” value is reported as “ineffective”, the “effect of nor-binaltorphimine on analgesic effect” value is recorded as “markedly inhibited” and the “effect of β-funaltrexamine on analgesic effect” value is on record as “markedly inhibited”. For the same compound, the “constipating ED50 times larger than analgesic ED50” value in series [4] is 4 times. Also, the ED50 in series [2] was found to be 11.1 mg/kg. Besides, in series [3], the ED50 worked out at 2.84 mg/kg and the “times more potent analgesic effect than morphine” value was found to be 22 times.
Regarding `CC[C@@H]1CN2CC[C@@]3(O)C(=Nc4ccc(F)c(OC)c43)[C@@H]2C[C@@H]1/C(=C\OC)C(=O)OC` [Compound 22, 7-Hydroxy-10-fluoromitragynine], the Emax in series [1] (setting [6]) amounted to 95%; in series [1] (setting [7]), 82.5 ± 1.8%. Also, in series [1], the EC50 was 13.5 nM. Moreover, the “Relative Potency (%)” value in series [1] is on record as 524%.
Turning to `CCC1CN2CCC3(O)c4c(ccc(F)c4OC)NC3C2CC1C(=COC)C(=O)OC` (centres unmarked) [Compound 27], in series [1], the “Relative Potency (%)” value was determined as 4571%, the “Inhibitory activity (%)” value turned out to be 102%, the “pD2 value (−log M)” value is 8.81 ± 0.09 −log M and the “Maximum inhibition (%)” value was found to be 89.0 ± 2.3%. Further, in series [5], the “effect of naloxone on analgesic effect” value is “completely blocked”, the “effect of naltrindole on analgesic effect” value is listed as “moderately inhibited”, the “effect of nor-binaltorphimine on analgesic effect” value is on record as “had no effect” and the “effect of β-funaltrexamine on analgesic effect” value is “markedly inhibited”. Further, in series [3], the “ED50 analgesic effect (tail-flick)” value was 0.263 (0.165-0.420) mg/kg and the “times more potent analgesic effect than morphine” value was 240 times. Besides, the “ED50 analgesic effect (tail-flick)” value in series [3] (listed as compound 27) was determined as 0.26 mg/kg.
For `CC[C@@H]1CN2CC[C@@]3(O)C(=Nc4ccc(Cl)c(OC)c43)[C@@H]2C[C@@H]1/C(=C\OC)C(=O)OC` [Compound 23, 7-Hydroxy-10-chloromitragynine], the Emax in series [1] (setting [6]) came out at 86%; in series [1] (setting [7]), 74.8 ± 3%. Also, the EC50 in series [1] is 29.5 nM. In addition, the “Relative Potency (%)” value in series [1] worked out at 239%.
`CC[C@@H]1CN2CC[C@@]34OCCO[C@@]3(Nc3ccc(Cl)c(OC)c34)[C@@H]2C[C@@H]1/C(=C\OC)C(=O)OC` [Compound 12a]: in series [1], the “Relative Potency (%)” value worked out at 288%, the “Inhibitory activity (%)” value is given as 55%, the “pD2 value (−log M)” value was 7.61 ± 0.17 −log M and the “Maximum inhibition (%)” value amounted to 48.1 ± 9.3%.
As to `C[C@@]12Nc3ccccc3[C@]1(C)OCCO2`, the melting point lay within 79 to 81 °C.
